Reference: ChEMBL document CHEMBL4219249, “Discovery of d-amino acid oxidase inhibitors based on virtual screening against the lid-open enzyme conformation” (Bioorg Med Chem Lett, 2018)
pIC50: −log10 of the molar value.

Tests used:
[1] = biological target: T1, D-amino-acid oxidase (Homo sapiens, UniProt P14920); test: Inhibition of human DAAO using D-kynurenine as substrate
Target sequence in this assay (P14920 whole entry): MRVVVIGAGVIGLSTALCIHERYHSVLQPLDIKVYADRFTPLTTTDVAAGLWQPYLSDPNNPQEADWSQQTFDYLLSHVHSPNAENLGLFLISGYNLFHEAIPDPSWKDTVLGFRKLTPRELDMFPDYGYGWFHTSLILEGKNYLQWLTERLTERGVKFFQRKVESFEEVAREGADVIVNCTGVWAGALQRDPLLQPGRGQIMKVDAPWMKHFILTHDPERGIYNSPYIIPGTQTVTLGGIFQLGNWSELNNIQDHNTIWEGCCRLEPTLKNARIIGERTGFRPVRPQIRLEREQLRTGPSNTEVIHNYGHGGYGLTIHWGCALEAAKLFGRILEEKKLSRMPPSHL

[2] = biological target: T1, D-amino-acid oxidase; test: Inhibition of human DAAO at 20 uM using D-kynurenine as substrate relative to control
Target sequence in this assay (P14920 whole entry, looked up): as the sequence (P14920 whole entry) above

SMILES | pIC50 [1] | inhibition [2] [%]
O=C(O)CNC(=O)c1cc(NC(=O)c2ccccn2)c[nH]1 |  | 18
O=C(O)CNC(=O)c1cc(NC(=O)c2cccnc2)c[nH]1 |  | 45
CC(=O)Nc1c[nH]c(C(=O)NCC(=O)O)c1 |  | 39
Cc1[nH]c(C(=O)Nc2c[nH]c(C(=O)NCC(=O)O)c2)c(Cl)c1Cl | 5.06 | 100
O=C(O)CNC(=O)c1cc([N+](=O)[O-])c[nH]1 |  | 35
O=C(O)CNC(=O)c1cc(NC(=O)c2ccc([N+](=O)[O-])[nH]2)c[nH]1 |  | 33

Second part, the molecule after the results:

pIC50 [1] | inhibition [2] [%] | SMILES
6.41 | 100 | O=C(O)CNC(=O)c1cc(NC(=O)c2cc(Br)c(Br)[nH]2)c[nH]1
5.17 | 100 | O=C(O)CNC(=O)c1cc(NC(=O)c2cc(Br)c[nH]2)c[nH]1
6.31 | 100 | CN(CC(=O)O)C(=O)c1cc(NC(=O)c2cc(Br)c(Br)[nH]2)c[nH]1
 | 32 | Cn1cc(NC(=O)c2cc(Br)c(Br)[nH]2)cc1C(=O)NCC(=O)O
 | 0 | CN(C(=O)c1cc(Br)c(Br)[nH]1)c1c[nH]c(C(=O)NCC(=O)O)c1
 | 8 | O=C(O)CNC(=O)c1cc(NC(=O)c2cc3ccccc3[nH]2)c[nH]1
5.28 | 100 | O=C(O)CNC(=O)c1cc(NC(=O)c2cc(Cl)c(Cl)[nH]2)c[nH]1
 | 0 | CN(CC(=O)O)C(=O)c1cc(N(C)C(=O)c2cc(Br)c(Br)[nH]2)c[nH]1
